Data published in ChEMBL document CHEMBL4739709, “Novel cyclin-dependent kinase 8 and/or 19 inhibitor” (2020).
Values belong to the compound of their own block, whether it stands above or below them. Calls of active or inactive are those of the source. The calls are words filed in the database; no cut-off is given here.

Columns and labels:
[1] = biological target: CDK8/Cyclin C (Homo sapiens) (UniProt P49336+P24863); assay: Inhibition of human CDK8/cyclin C at 1 uM incubated for 30 mins by ELISA; assay type: protein-complex assay
[2] = biological target: Cyclin-dependent kinase 19 (Homo sapiens) (UniProt Q9BWU1); assay: Inhibition of CDK19 (unknown origin) at 1 uM incubated for 30 mins by ELISA
Chain of Cyclin-dependent kinase 19 (Homo sapiens) (Q9BWU1 whole entry): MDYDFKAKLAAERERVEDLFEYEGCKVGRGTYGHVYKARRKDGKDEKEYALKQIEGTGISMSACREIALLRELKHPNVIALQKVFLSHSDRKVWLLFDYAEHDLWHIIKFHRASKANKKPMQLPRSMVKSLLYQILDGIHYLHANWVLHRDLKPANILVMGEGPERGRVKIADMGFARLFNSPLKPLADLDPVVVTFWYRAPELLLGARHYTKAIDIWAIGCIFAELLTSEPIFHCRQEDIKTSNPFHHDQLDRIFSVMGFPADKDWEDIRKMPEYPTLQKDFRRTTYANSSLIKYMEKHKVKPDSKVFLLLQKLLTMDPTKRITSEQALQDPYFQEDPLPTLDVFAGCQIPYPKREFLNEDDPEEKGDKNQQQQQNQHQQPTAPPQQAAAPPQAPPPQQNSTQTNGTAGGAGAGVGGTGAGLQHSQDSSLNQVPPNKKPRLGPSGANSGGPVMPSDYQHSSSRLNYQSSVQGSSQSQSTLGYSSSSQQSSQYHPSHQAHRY

MV4-11 = assay: Inhibition of cell proliferation of human MV4-11 cells at 1 uM incubated for 3 days by CellTiter 96 aqueous one solution cell proliferation assay; assay type: functional; settings: MV4-11, 72 h, time 3 day
[3] = biological target: Death-associated protein kinase 1 (Homo sapiens) (UniProt P53355); assay: Inhibition of human DAPK1 at 1 uM using substrate peptide by off-chip mobility shift assay
[4] = biological target: Serine/threonine-protein kinase PAK 2 (Homo sapiens) (UniProt Q13177); assay: Inhibition of human PAK2 at 1 uM using substrate peptide by off-chip mobility shift assay
[5] = biological target: CDK7/Cyclin H/MNAT1 (Homo sapiens) (UniProt P51946+P50613+P51948); assay: Inhibition of human CDK7/CycH/MAT1 at 1 uM using substrate peptide by off-chip mobility shift assay; assay type: protein-complex assay
[6] = biological target: cAMP-dependent protein kinase catalytic subunit alpha (Homo sapiens) (UniProt P17612); assay: Inhibition of human PKACalpha at 1 uM using substrate peptide by off-chip mobility shift assay
[7] = biological target: Cyclin-dependent kinase 5/CDK5 activator 1 (Homo sapiens) (UniProt Q00535+Q15078); assay: Inhibition of human CDK5/p25 at 1 uM using substrate peptide by off-chip mobility shift assay; assay type: protein-complex assay
[8] = biological target: AMP-activated protein kinase (AMPK) alpha-1/beta-1/gamma-1 (Homo sapiens) (UniProt P54619+Q9Y478+Q13131); assay: Inhibition of human AMPKalpha1/beta1/gamma1 at 1 uM using substrate peptide by off-chip mobility shift assay
[9] = biological target: Interleukin-1 receptor-associated kinase 4 (Homo sapiens) (UniProt Q9NWZ3); assay: Inhibition of human JNK2 at 1 uM using substrate peptide by off-chip mobility shift assay
Chain of Interleukin-1 receptor-associated kinase 4 (Homo sapiens) (Q9NWZ3 whole entry): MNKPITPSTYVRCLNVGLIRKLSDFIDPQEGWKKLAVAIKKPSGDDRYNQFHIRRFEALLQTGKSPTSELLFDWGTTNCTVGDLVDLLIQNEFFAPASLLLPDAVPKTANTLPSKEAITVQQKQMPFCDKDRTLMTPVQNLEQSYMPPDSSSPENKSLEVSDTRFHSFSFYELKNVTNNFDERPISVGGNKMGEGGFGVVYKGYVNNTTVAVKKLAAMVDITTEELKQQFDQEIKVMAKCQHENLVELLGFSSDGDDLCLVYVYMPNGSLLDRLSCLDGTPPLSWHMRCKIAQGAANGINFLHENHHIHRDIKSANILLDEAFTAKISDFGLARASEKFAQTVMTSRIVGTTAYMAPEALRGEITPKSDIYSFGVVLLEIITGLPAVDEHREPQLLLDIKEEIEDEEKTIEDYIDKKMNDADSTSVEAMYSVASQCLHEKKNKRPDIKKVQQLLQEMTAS

[10] = biological target: Serine/threonine-protein kinase Sgk1 (Homo sapiens) (UniProt O00141); assay: Inhibition of human SGK at 1 uM using substrate peptide by off-chip mobility shift assay
Homo sapiens [11] = organism: Homo sapiens; assay: Inhibition of human p70S6K at 1 uM using substrate peptide by off-chip mobility shift assay
[12] = biological target: 3-phosphoinositide-dependent protein kinase 1 (Homo sapiens) (UniProt O15530); assay: Inhibition of human PDK1 at 1 uM using substrate peptide by off-chip mobility shift assay
[13] = biological target: Inhibitor of nuclear factor kappa-B kinase subunit beta (Homo sapiens) (UniProt O14920); assay: Inhibition of human IKKbeta at 1 uM using substrate peptide by off-chip mobility shift assay
[14] = biological target: Aurora kinase A (Homo sapiens) (UniProt O14965); assay: Inhibition of human Aurora A at 1 uM using substrate peptide by off-chip mobility shift assay
[15] = biological target: Glycogen synthase kinase-3 beta (Homo sapiens) (UniProt P49841); assay: Inhibition of human GSK3beta at 1 uM using substrate peptide by off-chip mobility shift assay
[16] = biological target: CDK9/cyclin T1 (Homo sapiens) (UniProt O60563+P50750); assay: Inhibition of human CDK9/CycT1 at 1 uM using substrate peptide by off-chip mobility shift assay; assay type: protein-complex assay
[17] = biological target: Serine/threonine-protein kinase pim-1 (Homo sapiens) (UniProt P11309); assay: Inhibition of human PIM1 at 1 uM using substrate peptide by off-chip mobility shift assay
[18] = biological target: CDK4/Cyclin D3 (Homo sapiens) (UniProt P11802+P30281); assay: Inhibition of human CDK4/CycD3 at 1 uM using substrate peptide by off-chip mobility shift assay; assay type: protein-complex assay
[19] = biological target: Mitogen-activated protein kinase kinase kinase kinase 4 (Homo sapiens) (UniProt O95819); assay: Inhibition of human HGK at 1 uM using substrate peptide by off-chip mobility shift assay
Chain of Mitogen-activated protein kinase kinase kinase kinase 4 (Homo sapiens) (O95819 2-1239 limits assumed): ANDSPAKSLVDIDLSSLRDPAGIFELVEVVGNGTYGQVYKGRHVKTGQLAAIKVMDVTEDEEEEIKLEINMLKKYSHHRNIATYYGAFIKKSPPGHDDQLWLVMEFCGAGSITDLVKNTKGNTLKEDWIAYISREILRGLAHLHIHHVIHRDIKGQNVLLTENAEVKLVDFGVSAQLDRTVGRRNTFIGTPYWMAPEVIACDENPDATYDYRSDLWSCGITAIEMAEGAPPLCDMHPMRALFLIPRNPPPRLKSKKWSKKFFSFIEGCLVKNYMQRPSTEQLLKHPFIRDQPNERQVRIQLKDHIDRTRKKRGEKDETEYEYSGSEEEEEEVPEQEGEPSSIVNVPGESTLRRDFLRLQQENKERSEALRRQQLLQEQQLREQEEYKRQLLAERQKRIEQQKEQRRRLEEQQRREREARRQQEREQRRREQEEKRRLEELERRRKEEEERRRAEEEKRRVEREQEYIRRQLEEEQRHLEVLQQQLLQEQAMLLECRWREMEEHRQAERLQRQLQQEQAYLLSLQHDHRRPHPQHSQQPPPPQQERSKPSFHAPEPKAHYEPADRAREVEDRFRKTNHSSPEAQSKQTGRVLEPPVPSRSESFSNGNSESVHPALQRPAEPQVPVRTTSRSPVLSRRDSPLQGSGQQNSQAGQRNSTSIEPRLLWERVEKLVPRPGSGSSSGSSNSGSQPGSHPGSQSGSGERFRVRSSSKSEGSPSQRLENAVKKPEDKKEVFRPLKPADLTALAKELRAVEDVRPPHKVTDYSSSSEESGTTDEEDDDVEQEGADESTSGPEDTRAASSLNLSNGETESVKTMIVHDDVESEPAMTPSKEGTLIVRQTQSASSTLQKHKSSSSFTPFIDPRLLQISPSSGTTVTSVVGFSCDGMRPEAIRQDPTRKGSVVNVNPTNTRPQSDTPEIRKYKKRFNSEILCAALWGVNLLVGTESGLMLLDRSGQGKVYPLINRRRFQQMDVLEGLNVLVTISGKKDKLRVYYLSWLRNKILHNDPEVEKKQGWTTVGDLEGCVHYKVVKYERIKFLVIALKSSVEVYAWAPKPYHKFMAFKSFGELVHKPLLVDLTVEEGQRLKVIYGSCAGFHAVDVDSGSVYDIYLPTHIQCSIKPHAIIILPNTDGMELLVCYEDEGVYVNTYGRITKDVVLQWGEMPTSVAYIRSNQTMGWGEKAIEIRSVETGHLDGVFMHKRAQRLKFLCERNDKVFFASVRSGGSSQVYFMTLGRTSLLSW

[20] = biological target: Serine/threonine-protein kinase D2 (Homo sapiens) (UniProt Q9BZL6); assay: Inhibition of human PKD2 at 1 uM using substrate peptide by off-chip mobility shift assay
[21] = biological target: RAC-alpha serine/threonine-protein kinase (Homo sapiens) (UniProt P31749); assay: Inhibition of human AKT1 at 1 uM using substrate peptide by off-chip mobility shift assay
[22] = biological target: Serine/threonine-protein kinase Nek2 (Homo sapiens) (UniProt P51955); assay: Inhibition of human NEK2 at 1 uM using substrate peptide by off-chip mobility shift assay
[23] = biological target: Interleukin-1 receptor-associated kinase 4 (Homo sapiens) (UniProt Q9NWZ3); assay: Inhibition of human IRAK4 at 1 uM using substrate peptide by off-chip mobility shift assay
[24] = biological target: Cyclin-dependent kinase 1/cyclin B1 (Homo sapiens) (UniProt P06493+P14635); assay: Inhibition of human CDC2/CycB1 at 1 uM using substrate peptide by off-chip mobility shift assay; assay type: protein-complex assay
[25] = biological target: Mitogen-activated protein kinase 14 (Homo sapiens) (UniProt Q16539); assay: Inhibition of human p38alpha at 1 uM using substrate peptide by off-chip mobility shift assay
[26] = biological target: Rho-associated protein kinase 1 (Homo sapiens) (UniProt Q13464); assay: Inhibition of human ROCK1 at 1 uM using substrate peptide by off-chip mobility shift assay
Chain of Rho-associated protein kinase 1 (Homo sapiens) (Q13464 2-1354 limits assumed): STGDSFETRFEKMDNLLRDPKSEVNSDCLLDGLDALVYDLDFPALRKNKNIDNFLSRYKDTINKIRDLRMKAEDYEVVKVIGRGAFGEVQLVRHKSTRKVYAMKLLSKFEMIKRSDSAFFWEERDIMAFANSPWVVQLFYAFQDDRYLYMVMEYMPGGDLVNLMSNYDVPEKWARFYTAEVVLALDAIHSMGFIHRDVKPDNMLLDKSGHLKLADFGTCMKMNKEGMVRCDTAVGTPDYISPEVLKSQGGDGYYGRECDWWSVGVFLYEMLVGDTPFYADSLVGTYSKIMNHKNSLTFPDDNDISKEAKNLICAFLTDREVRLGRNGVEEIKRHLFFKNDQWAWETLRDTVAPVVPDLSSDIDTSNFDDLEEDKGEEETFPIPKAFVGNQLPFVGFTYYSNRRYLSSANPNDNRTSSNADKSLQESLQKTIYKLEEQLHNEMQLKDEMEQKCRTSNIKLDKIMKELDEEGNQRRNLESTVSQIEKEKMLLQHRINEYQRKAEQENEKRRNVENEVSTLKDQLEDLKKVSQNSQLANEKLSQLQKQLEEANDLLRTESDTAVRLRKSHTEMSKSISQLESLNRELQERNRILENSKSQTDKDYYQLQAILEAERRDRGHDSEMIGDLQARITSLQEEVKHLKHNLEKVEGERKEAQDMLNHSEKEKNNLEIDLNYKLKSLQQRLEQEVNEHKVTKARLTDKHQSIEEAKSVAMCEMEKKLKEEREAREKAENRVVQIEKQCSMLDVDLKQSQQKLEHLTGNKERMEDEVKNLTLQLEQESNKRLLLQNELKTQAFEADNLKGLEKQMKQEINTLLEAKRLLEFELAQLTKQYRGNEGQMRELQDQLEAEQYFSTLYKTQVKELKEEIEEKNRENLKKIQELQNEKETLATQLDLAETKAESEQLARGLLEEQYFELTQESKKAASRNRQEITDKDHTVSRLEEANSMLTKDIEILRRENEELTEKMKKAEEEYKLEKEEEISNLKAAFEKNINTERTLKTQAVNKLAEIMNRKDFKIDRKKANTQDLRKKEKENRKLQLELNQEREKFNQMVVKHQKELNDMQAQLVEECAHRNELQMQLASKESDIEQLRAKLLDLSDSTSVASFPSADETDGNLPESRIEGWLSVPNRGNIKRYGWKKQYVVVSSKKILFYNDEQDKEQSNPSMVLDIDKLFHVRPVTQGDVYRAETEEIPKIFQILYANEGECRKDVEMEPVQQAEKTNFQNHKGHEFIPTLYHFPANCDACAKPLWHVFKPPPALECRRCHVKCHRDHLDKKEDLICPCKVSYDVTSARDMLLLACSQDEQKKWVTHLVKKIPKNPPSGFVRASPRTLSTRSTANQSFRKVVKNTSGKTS

Homo sapiens [27] = organism: Homo sapiens; assay: Inhibition of human CK1delta at 1 uM using substrate peptide by off-chip mobility shift assay
[28] = biological target: CDK3/Cyclin E (Homo sapiens) (UniProt P24864+Q00526); assay: Inhibition of human CDK3/CycE1 at 1 uM using substrate peptide by off-chip mobility shift assay; assay type: protein-complex assay
[29] = biological target: CDK6/cyclin D3 (Homo sapiens) (UniProt P30281+Q00534); assay: Inhibition of human CDK6/cyclinD3 at 1 uM using substrate peptide by off-chip mobility shift assay; assay type: protein-complex assay
[30] = biological target: Serine/threonine-protein kinase Chk1 (Homo sapiens) (UniProt O14757); assay: Inhibition of human CHK1 at 1 uM using substrate peptide by off-chip mobility shift assay
[31] = biological target: CDK2/Cyclin C (Homo sapiens) (UniProt P24941+P24863); assay: Inhibition of human CDK2/CycC2 at 1 uM using substrate peptide by off-chip mobility shift assay
[32] = biological target: Testis-specific serine/threonine-protein kinase 1 (Homo sapiens) (UniProt Q9BXA7); assay: Inhibition of human TSSK1 at 1 uM using substrate peptide by off-chip mobility shift assay
[33] = biological target: Dual specificity tyrosine-phosphorylation-regulated kinase 1B (Homo sapiens) (UniProt Q9Y463); assay: Inhibition of human DYRK1B at 1 uM using substrate peptide by off-chip mobility shift assay
Chain of Dual specificity tyrosine-phosphorylation-regulated kinase 1B (Homo sapiens) (Q9Y463 whole entry, looked up): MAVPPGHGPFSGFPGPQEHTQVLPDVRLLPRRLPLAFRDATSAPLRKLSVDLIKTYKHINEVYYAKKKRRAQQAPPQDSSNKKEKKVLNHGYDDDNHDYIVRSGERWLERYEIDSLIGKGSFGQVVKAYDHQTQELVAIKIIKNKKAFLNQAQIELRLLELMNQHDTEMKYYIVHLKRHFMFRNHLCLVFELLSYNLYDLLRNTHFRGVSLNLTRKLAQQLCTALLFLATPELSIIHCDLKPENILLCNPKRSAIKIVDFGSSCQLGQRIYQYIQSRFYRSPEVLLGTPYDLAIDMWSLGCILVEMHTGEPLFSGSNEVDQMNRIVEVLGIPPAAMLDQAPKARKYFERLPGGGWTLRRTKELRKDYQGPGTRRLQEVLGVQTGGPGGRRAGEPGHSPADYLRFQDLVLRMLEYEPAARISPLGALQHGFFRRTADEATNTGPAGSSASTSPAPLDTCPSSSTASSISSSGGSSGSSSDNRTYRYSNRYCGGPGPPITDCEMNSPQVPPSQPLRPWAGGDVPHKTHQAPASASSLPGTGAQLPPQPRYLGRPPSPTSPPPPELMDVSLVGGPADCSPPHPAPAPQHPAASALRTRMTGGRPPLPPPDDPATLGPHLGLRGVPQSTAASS

[34] = biological target: Mitogen-activated protein kinase 1 (Homo sapiens) (UniProt P28482); assay: Inhibition of human ERK2 at 1 uM using substrate peptide by off-chip mobility shift assay
[35] = biological target: Serine/threonine-protein kinase 4 (Homo sapiens) (UniProt Q13043); assay: Inhibition of human MST1 at 1 uM using substrate peptide by off-chip mobility shift assay
[36] = biological target: Mitogen-activated protein kinase kinase kinase kinase 2 (Homo sapiens) (UniProt Q12851); assay: Inhibition of human MAP4K2 at 1 uM using substrate peptide by off-chip mobility shift assay
Chain of Mitogen-activated protein kinase kinase kinase kinase 2 (Homo sapiens) (Q12851 whole entry): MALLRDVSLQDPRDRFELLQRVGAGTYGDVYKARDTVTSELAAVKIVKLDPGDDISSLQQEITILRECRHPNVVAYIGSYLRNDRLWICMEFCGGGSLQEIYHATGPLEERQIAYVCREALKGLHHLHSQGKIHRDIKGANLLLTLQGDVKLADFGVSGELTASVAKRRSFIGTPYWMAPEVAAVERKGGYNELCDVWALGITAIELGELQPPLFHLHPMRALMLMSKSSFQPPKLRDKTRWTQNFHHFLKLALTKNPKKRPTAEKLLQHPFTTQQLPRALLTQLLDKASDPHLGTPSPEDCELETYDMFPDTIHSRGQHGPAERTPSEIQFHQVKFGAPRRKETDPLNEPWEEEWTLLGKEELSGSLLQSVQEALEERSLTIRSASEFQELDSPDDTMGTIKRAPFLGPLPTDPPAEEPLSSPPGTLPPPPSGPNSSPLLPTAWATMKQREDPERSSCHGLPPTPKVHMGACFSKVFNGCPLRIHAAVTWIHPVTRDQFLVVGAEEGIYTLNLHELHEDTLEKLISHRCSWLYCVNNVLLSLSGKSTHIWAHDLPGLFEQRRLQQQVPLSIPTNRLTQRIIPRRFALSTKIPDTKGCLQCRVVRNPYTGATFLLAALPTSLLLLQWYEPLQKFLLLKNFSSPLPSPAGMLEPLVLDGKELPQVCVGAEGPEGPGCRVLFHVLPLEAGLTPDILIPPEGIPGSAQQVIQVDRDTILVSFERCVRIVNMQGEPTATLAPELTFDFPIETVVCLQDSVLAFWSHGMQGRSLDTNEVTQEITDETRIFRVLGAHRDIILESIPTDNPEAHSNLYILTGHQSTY

[37] = biological target: Calcium/calmodulin-dependent protein kinase type IV (Homo sapiens) (UniProt Q16566); assay: Inhibition of human CaMK4 at 1 uM using substrate peptide by off-chip mobility shift assay
[38] = biological target: Cyclin-dependent kinase 2/cyclin E1 (Homo sapiens) (UniProt P24864+P24941); assay: Inhibition of human CDK2/CycE1 at 1 uM using substrate peptide by off-chip mobility shift assay; assay type: protein-complex assay
[39] = biological target: Lymphokine-activated killer T-cell-originated protein kinase (Homo sapiens) (UniProt Q96KB5); assay: Inhibition of human PBK at 1 uM using substrate peptide by off-chip mobility shift assay

inhibition [1]: > 90% | inhibition [2]: > 90%
SMILES: C[C@@H](O)c1ccc(C(N)=O)cc1Oc1ccc(OCCOC2CCOCC2)cc1

inhibition [1]: > 90%
SMILES: NC(=O)c1ccc(C(F)(F)F)c(Oc2ccc(OCCOC3CCOCC3)cc2)c1
inhibition at 1 µM (MV4-11): ≥ 50%

inhibition [4]: inactive | inhibition [5]: inactive | inhibition [6]: inactive | inhibition [7]: inactive | inhibition [8]: inactive | inhibition [9]: inactive | inhibition [10]: inactive | inhibition (Homo sapiens [11]): inactive | inhibition [12]: inactive | inhibition [13]: inactive | inhibition [14]: inactive | inhibition [1]: > 90% | inhibition [15]: inactive | inhibition [16]: inactive | inhibition [17]: inactive | inhibition [18]: inactive | inhibition [2]: > 90% | inhibition [19]: inactive | inhibition [20]: inactive | inhibition [21]: inactive | inhibition [22]: inactive | inhibition [23]: inactive | inhibition [24]: inactive | inhibition [25]: inactive | inhibition [26]: inactive | inhibition (Homo sapiens [27]): inactive | inhibition [28]: inactive | inhibition [29]: inactive | inhibition [30]: inactive | inhibition [31]: inactive | inhibition [32]: inactive | inhibition [33]: inactive | inhibition [34]: inactive | inhibition [35]: inactive | inhibition [36]: inactive | inhibition [37]: inactive | inhibition [38]: inactive
SMILES: CC(=O)c1ccc(C(N)=O)cc1Oc1ccc(OCCOC2CCOCC2)cc1
inhibition [3]: inactive | inhibition at 1 µM (MV4-11): ≥ 50% | inhibition [39]: inactive

inhibition [1]: > 90%
SMILES: C=C(F)c1ccc(C(N)=O)cc1Oc1ccc(OCCOC2CCOCC2)cc1
inhibition at 1 µM (MV4-11): ≥ 50%

inhibition [1]: > 90%
SMILES: CC(=O)c1ccc(C(N)=O)cc1Oc1ccc(OCCOC2CCOC2)cc1 (configuration not stated)
inhibition at 1 µM (MV4-11): ≥ 50%

The remaining lines, values behind:

SMILES: CC(=O)c1ccc(C(N)=O)cc1Nc1ccc(OCCOCCCC(=O)O)cc1
inhibition [1]: > 90%

SMILES: NC(=O)c1ccc([N+](=O)[O-])c(Nc2ccc(OCCOC3CCOCC3)cc2)c1
inhibition at 1 µM (MV4-11): ≥ 50% | inhibition [1]: > 90%

SMILES: CNC(=O)c1ccc([N+](=O)[O-])c(Nc2ccc(N3CC(OCCO)C3)cc2)c1
inhibition at 1 µM (MV4-11): ≥ 50% | inhibition [1]: > 90%

SMILES: CC(C)OCCOCCOc1ccc(Oc2cc(C(N)=O)ccc2C(F)(F)F)cc1
inhibition [1]: > 90%

SMILES: CC(=O)c1ccc(C(N)=O)c(Oc2ccc(N3CC(OCCO)C3)cc2)c1
inhibition [1]: > 90%

SMILES: CC(=O)c1ccc(C(N)=O)cc1Oc1ccc(OCCOCCOC(C)C)cc1
inhibition at 1 µM (MV4-11): ≥ 50% | inhibition [1]: > 90%

SMILES: COc1cc(Nc2ccc(N3CCN(CC(C)(C)C(=O)O)CC3)cc2)c([N+](=O)[O-])cc1F
inhibition [1]: > 90%

SMILES: CC(=O)c1ccc(C(N)=O)cc1Oc1ccc(N2CC(OCCO)C2)cc1
inhibition at 1 µM (MV4-11): ≥ 50% | inhibition [1]: > 90%

SMILES: NC(=O)c1ccc([N+](=O)[O-])c(Nc2ccc(N3CC(OCCO)C3)cc2)c1
inhibition at 1 µM (MV4-11): ≥ 50% | inhibition [1]: > 90%
